Results as given in US12018005B1, “Blarcamesine co-crystals for the manufacture of pharmaceutical dosage form” (EGIS GYÓGYSZERGYÁR ZRT., priority 2023, dated 2024).

Experiments:
Format in all cases: physicochemical
[1] = solubility over the relevant pH range; settings: entire relevant pH range
[2] = crystal structure after wet grinding; settings: subjected to wet grinding
[3] = resistance to oxidative stress; settings: compared with blarcamesine hydrochloric acid salt

Molecule	solubility [1]	retention of crystal structure / polymorphic form after wet grinding [2]	resistance to oxidative stress [3]
CN(C)CC1CCOC1(c1ccccc1)c1ccccc1.Cl (racemic) [hydrochloric acid salt, [(2,2-diphenyloxolan-3-yl)methyl]dimethylamine hydrochloride]	extreme solubility	polymorphic form of the hydrochloride salt changes	–
(S)-(−)-blarcamesine hydrochloride, (R)-(+)-blarcamesine hydrochloride, ZnCl2 (1:1:1) co-crystal [ZnCl2 co-crystal]	–	retains its crystal structure	more resistant to oxidative stress than the hydrochloric acid salt
